In patent publication US12065436B2, “Cardiac sarcomere inhibitors” (Cytokinetics, Inc., priority 2018, dated 2024):

Biological target: bovine cardiac myofibrils (full-length cardiac myosin ATPase in the native sarcomere) (Bos taurus (Bovine), UniProt Q9BE39)
Assay: Skinned bovine cardiac myofibril ATPase assay (PK/LDH-coupled)
Type: biochemical
Settings: Ca2+ activating to 75% of maximal rate; for CDMF75 IC15: concentration giving 15% inhibition; for IC50: read-out: CDMF75 IC50
Method in brief: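 Inhibition of steady-state ATPase read at 340 nm through a PK/LDH-coupled NADH system (0.5 mM NADH, 1.5 mM PEP). Detergent-skinned bovine cardiac myofibrils, 1 mg/mL, were tested at pH 6.8 in PIPES/MgCl2 with 50 μM ATP and calcium adjusted to give pCa50 or pCa75 activation.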

bovine cardiac myofibrils (full-length cardiac myosin ATPase in the native sarcomere), sequence (Q9BE39 whole entry): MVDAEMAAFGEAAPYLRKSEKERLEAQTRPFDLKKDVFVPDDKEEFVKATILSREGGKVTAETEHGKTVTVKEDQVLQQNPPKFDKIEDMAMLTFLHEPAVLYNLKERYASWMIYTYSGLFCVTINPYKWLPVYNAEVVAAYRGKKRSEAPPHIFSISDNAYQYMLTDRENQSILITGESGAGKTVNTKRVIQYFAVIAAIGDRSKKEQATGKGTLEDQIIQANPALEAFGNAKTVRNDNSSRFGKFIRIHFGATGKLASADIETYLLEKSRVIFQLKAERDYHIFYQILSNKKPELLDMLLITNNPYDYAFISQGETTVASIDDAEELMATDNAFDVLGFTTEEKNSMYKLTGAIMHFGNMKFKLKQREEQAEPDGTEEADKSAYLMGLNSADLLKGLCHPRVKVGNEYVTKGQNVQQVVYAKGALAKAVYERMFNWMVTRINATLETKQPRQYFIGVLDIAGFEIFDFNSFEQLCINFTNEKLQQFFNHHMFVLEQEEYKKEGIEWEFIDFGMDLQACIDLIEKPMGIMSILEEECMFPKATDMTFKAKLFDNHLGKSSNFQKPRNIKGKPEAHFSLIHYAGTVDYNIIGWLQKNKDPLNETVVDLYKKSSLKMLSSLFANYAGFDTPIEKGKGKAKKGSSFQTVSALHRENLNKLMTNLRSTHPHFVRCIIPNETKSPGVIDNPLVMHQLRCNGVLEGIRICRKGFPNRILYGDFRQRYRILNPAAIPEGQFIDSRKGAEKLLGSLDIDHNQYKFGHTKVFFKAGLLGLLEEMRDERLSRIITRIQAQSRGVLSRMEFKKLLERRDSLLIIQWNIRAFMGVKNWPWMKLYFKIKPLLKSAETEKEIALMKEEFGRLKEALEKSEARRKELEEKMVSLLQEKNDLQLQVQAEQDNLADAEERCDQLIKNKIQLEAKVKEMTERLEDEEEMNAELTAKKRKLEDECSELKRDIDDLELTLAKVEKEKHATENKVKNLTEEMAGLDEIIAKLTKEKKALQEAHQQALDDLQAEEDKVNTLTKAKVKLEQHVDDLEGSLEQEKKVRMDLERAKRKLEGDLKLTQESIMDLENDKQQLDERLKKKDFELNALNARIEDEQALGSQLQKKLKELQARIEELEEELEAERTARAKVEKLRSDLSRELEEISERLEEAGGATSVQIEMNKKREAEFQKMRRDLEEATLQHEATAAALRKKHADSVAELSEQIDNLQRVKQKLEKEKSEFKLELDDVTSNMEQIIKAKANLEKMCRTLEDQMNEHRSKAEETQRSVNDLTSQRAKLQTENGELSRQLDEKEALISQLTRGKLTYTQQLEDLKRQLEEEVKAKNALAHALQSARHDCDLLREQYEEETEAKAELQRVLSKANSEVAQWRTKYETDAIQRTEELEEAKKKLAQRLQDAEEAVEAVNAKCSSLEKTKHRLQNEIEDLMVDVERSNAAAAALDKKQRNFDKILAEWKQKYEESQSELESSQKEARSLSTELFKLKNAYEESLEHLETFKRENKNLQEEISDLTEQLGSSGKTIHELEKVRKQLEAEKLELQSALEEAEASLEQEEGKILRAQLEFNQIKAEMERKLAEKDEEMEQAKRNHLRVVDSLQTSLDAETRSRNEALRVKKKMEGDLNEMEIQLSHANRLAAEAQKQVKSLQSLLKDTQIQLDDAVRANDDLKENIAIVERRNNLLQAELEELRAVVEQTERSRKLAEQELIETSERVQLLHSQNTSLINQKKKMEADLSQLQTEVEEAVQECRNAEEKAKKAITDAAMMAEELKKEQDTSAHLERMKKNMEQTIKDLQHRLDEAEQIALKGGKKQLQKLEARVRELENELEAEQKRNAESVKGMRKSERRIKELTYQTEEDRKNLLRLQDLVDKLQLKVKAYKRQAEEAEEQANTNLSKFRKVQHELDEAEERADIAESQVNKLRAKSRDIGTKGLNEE
bovine cardiac myofibrils (full-length cardiac myosin ATPase in the native sarcomere), sequence (P85100 whole entry partner): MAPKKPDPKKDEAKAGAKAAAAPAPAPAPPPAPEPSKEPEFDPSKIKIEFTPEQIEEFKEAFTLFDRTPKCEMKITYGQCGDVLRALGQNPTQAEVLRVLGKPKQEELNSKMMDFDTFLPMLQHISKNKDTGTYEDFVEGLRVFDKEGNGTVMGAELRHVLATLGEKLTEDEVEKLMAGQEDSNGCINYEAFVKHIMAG
bovine cardiac myofibrils (full-length cardiac myosin ATPase in the native sarcomere), sequence (Q3SZE5 whole entry partner): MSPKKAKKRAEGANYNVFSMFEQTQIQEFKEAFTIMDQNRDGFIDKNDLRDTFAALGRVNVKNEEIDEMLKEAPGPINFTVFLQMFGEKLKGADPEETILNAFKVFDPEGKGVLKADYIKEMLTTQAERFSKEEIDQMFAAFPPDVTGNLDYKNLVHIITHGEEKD

CDMF75 IC15 | IC50 | Compound
4.8 µM | 21 µM | Cc1cccnc1C(=O)NC1CCc2cc(-c3noc(C(F)F)n3)ccc21 (stereo not drawn) [Compound 58, N-(5-(5-(difluoromethyl)-1,2,4-oxadiazol-3-yl)-2,3-dihydro-1H-inden-1-yl)-3-methylpicolinamide]
2.1 µM | 9.7 µM | Cc1cc(C(=O)NC2CCc3cc(-c4noc(C(F)F)n4)ccc32)cnn1 (stereo not drawn) [Compound 37, N-(5-(5-(difluoromethyl)-1,2,4-oxadiazol-3-yl)-2,3-dihydro-1H-inden-1-yl)-6-methylpyridazine-4-carboxamide]
7.8 µM | 30.5 µM | Cc1nccc(C(=O)NC2CCc3cc(-c4noc(C(F)F)n4)ccc32)n1 (stereo not drawn) [Compound 26, N-(5-(5-(difluoromethyl)-1,2,4-oxadiazol-3-yl)-2,3-dihydro-1H-inden-1-yl)-2-methylpyrimidine-4-carboxamide]
2.1 µM | 9.5 µM | Cc1nc(-c2ccc3c(c2)OC[C@H]3NC(=O)c2ccnc(C(C)O)c2)no1 (stereo partly drawn) [Compound 738, 2-(1-hydroxyethyl)-N-((S)-6-(5-methyl-1,2,4-oxadiazol-3-yl)-2,3-dihydrobenzofuran-3-yl)isonicotinamide]
0.6 µM | 2 µM | Cc1ncoc1C(=O)NC1CCc2cc(-c3noc(C(F)F)n3)ccc21 (stereo not drawn) [Compound 12, N-(5-(5-(difluoromethyl)-1,2,4-oxadiazol-3-yl)-2,3-dihydro-1H-inden-1-yl)-4-methyloxazole-5-carboxamide]
3.2 µM | 12.8 µM | COCCn1cc(C(=O)N[C@@H]2CCc3cc(-c4noc(C)n4)ccc32)cn1 [Compound 509, (R)-1-(2-methoxyethyl)-N-(5-(5-methyl-1,2,4-oxadiazol-3-yl)-2,3-dihydro-1H-inden-1-yl)-1H-pyrazole-4-carboxamide]
0.4 µM | 1.5 µM | CCc1nc(-c2ccc3c(c2)CC[C@H]3NC(=O)c2cccnc2)no1 [Compound 624, (R)-N-(5-(5-ethyl-1,2,4-oxadiazol-3-yl)-2,3-dihydro-1H-inden-1-yl)nicotinamide]
10.1 µM | > 39.2 µM | Cc1cc(C(=O)NC2COc3cc(-c4noc(C(F)F)n4)cnc32)ccn1 (stereo not drawn) [Compound 195, N-(6-(5-(difluoromethyl)-1,2,4-oxadiazol-3-yl)-2,3-dihydrofuro[3,2-b]pyridin-3-yl)-2-methylisonicotinamide]
4.1 µM | 24.3 µM | CCc1nc(-c2ccc3c(c2)CC[C@H]3NC(=O)c2cn[nH]c2OC)no1 [Compound 486, (R)-N-(5-(5-ethyl-1,2,4-oxadiazol-3-yl)-2,3-dihydro-1H-inden-1-yl)-5-methoxy-1H-pyrazole-4-carboxamide]
0.3 µM | 1.2 µM | CCc1nc(-c2ccc3c(c2)CC[C@H]3NC(=O)c2cnco2)no1 [Compound 584, (R)-N-(5-(5-ethyl-1,2,4-oxadiazol-3-yl)-2,3-dihydro-1H-inden-1-yl)oxazole-5-carboxamide]
2.2 µM | 10.3 µM | Cc1ccnc(-c2ccc3c(c2)CC[C@H]3NC(=O)c2ccnn2C)c1 [Compound 380, (R)-1-methyl-N-(5-(4-methylpyridin-2-yl)-2,3-dihydro-1H-inden-1-yl)-1H-pyrazole-5-carboxamide]
0.6 µM | 2.1 µM | COCc1nc(-c2ccc3c(c2)CC[C@H]3NC(=O)c2conc2C)no1 [Compound 689, (R)-N-(5-(5-(methoxymethyl)-1,2,4-oxadiazol-3-yl)-2,3-dihydro-1H-inden-1-yl)-3-methylisoxazole-4-carboxamide]
0.7 µM | 2.6 µM | O=C(N[C@@H]1CCc2cc(-c3noc(C(F)F)n3)ccc21)c1ccnc(C(F)F)c1 [Compound 685, (R)-2-(difluoromethyl)-N-(5-(5-(difluoromethyl)-1,2,4-oxadiazol-3-yl)-2,3-dihydro-1H-inden-1-yl)isonicotinamide]
1.4 µM | 5.8 µM | CCc1nc(-c2ccc3c(c2)CC[C@H]3NC(=O)c2ccc(C)cn2)no1 [Compound 642, (R)-N-(5-(5-ethyl-1,2,4-oxadiazol-3-yl)-2,3-dihydro-1H-inden-1-yl)-5-methylpicolinamide]
1.4 µM | 5.4 µM | Cc1cc(C(=O)N[C@@H]2CCc3cc(-c4nc(C)no4)ccc32)ccn1 [Compound 131, (R)-2-methyl-N-(5-(3-methyl-1,2,4-oxadiazol-5-yl)-2,3-dihydro-1H-inden-1-yl)isonicotinamide]
4.9 µM | 28.1 µM | Cc1cc(C(=O)N[C@@H]2CCc3cc(-c4nc(C)no4)ccc32)cnn1 [Compound 705, (R)-6-methyl-N-(5-(3-methyl-1,2,4-oxadiazol-5-yl)-2,3-dihydro-1H-inden-1-yl)pyridazine-4-carboxamide]
10.0 µM | 39.2 µM | CCc1nc(-c2ccc3c(c2)C[C@H](O)[C@H]3NC(=O)c2cnn(C)c2)no1 [Compound 495, N-((1S,2S)-5-(5-ethyl-1,2,4-oxadiazol-3-yl)-2-hydroxy-2,3-dihydro-1H-inden-1-yl)-1-methyl-1H-pyrazole-4-carboxamide]
0.5 µM | 1.7 µM | Cc1nc(-c2ccc3c(c2)CC[C@H]3NC(=O)c2ccnn2C)no1 [Compound 107, (R)-1-methyl-N-(5-(5-methyl-1,2,4-oxadiazol-3-yl)-2,3-dihydro-1H-inden-1-yl)-1H-pyrazole-5-carboxamide]
0.5 µM | 1.5 µM | CCc1nc(-c2ccc3c(c2)CC[C@H]3NC(=O)c2cc(CO)ccn2)no1 [Compound 652, (R)-N-(5-(5-ethyl-1,2,4-oxadiazol-3-yl)-2,3-dihydro-1H-inden-1-yl)-4-(hydroxymethyl)picolinamide]
39.2 µM | > 39.2 µM | CC(C)NC(=O)NC1CCc2cc(-c3noc(C(F)F)n3)ccc21 (stereo not drawn) [Compound 14, 1-(5-(5-(difluoromethyl)-1,2,4-oxadiazol-3-yl)-2,3-dihydro-1H-inden-1-yl)-3-isopropylurea]
1.4 µM | 6.8 µM | CCc1nc(-c2ccc3c(c2)CC[C@H]3NC(=O)c2csc(C)n2)no1 [Compound 590, (R)-N-(5-(5-ethyl-1,2,4-oxadiazol-3-yl)-2,3-dihydro-1H-inden-1-yl)-2-methylthiazole-4-carboxamide]
1.4 µM | 6.7 µM | Cc1ncc(C(=O)NC2CCc3cc(-c4noc(C(F)F)n4)ccc32)o1 (stereo not drawn) [Compound 9, N-(5-(5-(difluoromethyl)-1,2,4-oxadiazol-3-yl)-2,3-dihydro-1H-inden-1-yl)-2-methyloxazole-5-carboxamide]
0.5 µM | 1.9 µM | CCc1nc(-c2ccc3c(c2)CC[C@H]3NC(=O)OC2CCCC2)no1 [Compound 325, cyclopentyl (R)-(5-(5-ethyl-1,2,4-oxadiazol-3-yl)-2,3-dihydro-1H-inden-1-yl)carbamate]
3.9 µM | 18.5 µM | Cc1cncc(-c2ccc3c(c2)CC[C@H]3NC(=O)c2ccnn2C)c1 [Compound 376, (R)-1-methyl-N-(5-(5-methylpyridin-3-yl)-2,3-dihydro-1H-inden-1-yl)-1H-pyrazole-5-carboxamide]
